The target in the assay is human H1R (Homo sapiens, UniProt P35367). The format is binding. To be noted: between 13 and 17.

This note sets out measurements from PMC8154229 (ACS Omega, 2021).

human H1R, sequence (P35367 whole entry): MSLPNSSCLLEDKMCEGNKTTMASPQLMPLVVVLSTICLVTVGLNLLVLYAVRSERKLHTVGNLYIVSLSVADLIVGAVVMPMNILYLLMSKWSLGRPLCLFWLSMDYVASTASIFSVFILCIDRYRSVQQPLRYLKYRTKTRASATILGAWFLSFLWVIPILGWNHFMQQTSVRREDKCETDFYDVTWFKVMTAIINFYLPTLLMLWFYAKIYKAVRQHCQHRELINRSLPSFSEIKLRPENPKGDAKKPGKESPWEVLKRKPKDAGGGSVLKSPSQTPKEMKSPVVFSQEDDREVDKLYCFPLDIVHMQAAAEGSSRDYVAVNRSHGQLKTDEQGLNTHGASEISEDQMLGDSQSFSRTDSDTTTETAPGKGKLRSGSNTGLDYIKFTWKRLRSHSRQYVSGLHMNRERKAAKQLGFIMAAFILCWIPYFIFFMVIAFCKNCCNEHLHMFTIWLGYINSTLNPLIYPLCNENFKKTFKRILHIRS

`CN1CCC(=C2c3ccccc3CCc3ccccc32)CC1` [Compound 13, 4-(10,11-Dihydro-5H-dibenzo[a,d][7]annulen-5-ylidene)-1-methylpiperidine]: the “fold difference in affinity” value is on record as 100 fold.
